Structures are written as SMILES.

Experimental findings from ChEMBL document CHEMBL4251715, “Hepatoprotective Dibenzocyclooctadiene and Tetrahydrobenzocyclooctabenzofuranone Lignans from Kadsura longipedunculata” (2018) are described below.

In the assay the test system is HepG2. Description: Hepatoprotective activity against APAP-induced toxicity in human HepG2 cells assessed as cell survival rate at 10 uM after 48 hrs by MTT assay relative to control. The following applies: HepG2, 48 h, read-out: Survival. It is filed as functional.
As for `COC1=C(OC)C(=O)[C@]23COc4c5c(cc(c42)[C@H](OC(=O)c2ccccc2)[C@H](C)[C@](C)(O)CC3=C1)OCO5`, the viability at 10 µM worked out at 52.2%.
`COC1=C(OC)C(=O)[C@]23COc4c5c(cc(c42)[C@H](OC(C)=O)[C@H](C)[C@H](C)CC3=C1)OCO5`: the viability at 10 µM was 50.2%.
Take `COC(=O)c1cc(OC)c2c(c1-c1c(CO)cc(OC)c3c1OCO3)OCO2` [BICYCLOL]: the viability at 10 µM came out at 49%.
